Assay results: ChEMBL document CHEMBL1148562, “Synthesis and biological evaluation of novel pyrrolo[2,1-c][1,4]benzodiazepine prodrugs for use in antibody-directed enzyme prodrug therapy” (Bioorg Med Chem Lett, 2006); call rule not given here

Assays:
LS174T [1] = test: Cytotoxicity against LS174T human colon cell line after continuous exposure; format: functional, cell-based
[2] = Conversion of prodrug to parent in distilled water at room temperature for 24 hrs; format: ADME; conditions: buffer
LS174T [3] = test: Cytotoxicity against LS174T human colon cell line after 1 hour of exposure; format: functional, cell-based
[4] = Conversion of prodrug to parent in distilled water at 37 degC for 24 hrs; format: ADME; conditions: buffer

In the case of `COc1cc2c(cc1OCCCOc1cc3c(cc1OC)C(=O)N1CCC[C@H]1[C@H](O)N3C(=O)OCc1ccc(NC(=O)N[C@@H](CCC(=O)O)C(=O)O)cc1)N(C(=O)OCc1ccc(NC(=O)N[C@@H](CCC(=O)O)C(=O)O)cc1)[C@@H](O)[C@@H]1CCCN1C2=O`, the IC50 (LS174T [1]) is reported as 0.8 nM, the Activity [2] is reported as “Active” and the IC50 (LS174T [3]) is reported as 6 nM. The Activity [4] was “Active”.

For `COc1cc2c(cc1OCCCOc1cc3c(cc1OC)C(=O)N1CCC[C@H]1[C@H](O)N3C(=O)OCc1ccc(OC(=O)N[C@@H](CCC(=O)O)C(=O)O)cc1)N(C(=O)OCc1ccc(OC(=O)N[C@@H](CCC(=O)O)C(=O)O)cc1)[C@@H](O)[C@@H]1CCCN1C2=O`, the IC50 (LS174T [1]) was 21 nM, the Stability [2] was “Stable” and the IC50 (LS174T [3]) was 200 nM. The Activity [4] was 3%.

For `COc1cc2c(cc1OC)N(C(=O)OCc1ccc(OC(=O)N[C@@H](CCC(=O)O)C(=O)O)cc1)[C@@H](O)[C@@H]1CCCN1C2=O`, the IC50 (LS174T [1]) was 20000 nM, the Stability [2] was “Stable” and the IC50 (LS174T [3]) was > 100000 nM. For the same compound, the Activity [4] was 7%.

In the case of `COc1cc2c(cc1OCCCOc1cc3c(cc1OC)C(=O)N1CCC[C@H]1C=N3)N=C[C@@H]1CCCN1C2=O` [DSB-120], the IC50 (LS174T [1]) is reported as 0.47 nM and the IC50 (LS174T [3]) is reported as 13 nM.

With `COc1cc2c(cc1OC)C(=O)N1CCC[C@H]1C=N2` the IC50 (LS174T [1]) was 1400 nM and the IC50 (LS174T [3]) was 14000 nM.

For `COc1cc2c(cc1OC)N(C(=O)OCc1ccc(NC(=O)N[C@@H](CCC(=O)O)C(=O)O)cc1)[C@@H](O)[C@@H]1CCCN1C2=O`, the IC50 (LS174T [1]) was 1600 nM, the Activity [2] was “Active” and the IC50 (LS174T [3]) was 28000 nM. For the same compound, the Activity [4] was “Active”.
